Measured values taken from paper PMC11642486 (International Journal of Molecular Sciences, 2024).
Where a name gives a salt, the structure may show the parent alone. Read-outs that look alike come from different tables or passages of the source.

Key:
[1] = system: neurons; experiment: Neuronal apoptosis (TUNEL) induced by conditioned medium of LPS-activated microglia; assay type: cell-based, Wistar rats; conditions: neurons pre-treated 4 h, then 4 h with supernatant of LPS + drug microglia (48 h)
Protocol: Given that physiologically, if any of the drugs enter the BBB, both the neurons and microglia will be exposed to them, we decided to study the synergistic effects (direct antioxidant properties in neurons with indirect anti-inflammatory effects in microglia) of the drugs in both cells. […] Representative confocal microscopy images of the apoptosis assay are shown in Supplementary Figure S2.
The apoptosis of neurons was determined using the DeadEnd™ Fluorometric TUNEL System (Promega Biotech Ibérica, Madrid, Spain) following the manufacturer’s instructions. Neurons were seeded on glass coverslips previously treated with 1 mg/mL of poly-L-lysine at a density of 500,000 cells/well. […] Then, the supernatants of 48 h LPS-treated or LPS + drug (at the same drug concentrations as in neurons) microglia cells were added to the neuronal culture and incubated for an additional 4 h. Apoptosis was determined using Leica TCS SP5 confocal microscopy and quantified using ImageJ software. For each experimental condition, five random fields were captured to count the number of positive fluorescent cells (apoptotic) divided by the total number of cells identified by the nuclear fluorescent staining TO-PRO. Each experiment was repeated three times.

[2] = system: Primary hippocampal neurons; experiment: Cell viability assay (CellTiter-Glo) in neurons; assay type: cell-based, Wistar rats; conditions: for IC50: concentration diminishing cell viability by 50% vs vehicle
Protocol: Cell viability was measured at 24, 48, and 72 h of treatment with different drug concentration ranges. For each cellular type, we determined the half-maximal inhibitory concentration (IC50) of each drug.
(§1) Primary hippocampal neurons were obtained from Wistar rats on embryonic day 18. Briefly, embryos were removed from the womb under sterile conditions and decapitated to dissect the brains. Hippocampi were isolated at 4 °C in Hank’s balanced salt solution (HBSS) without calcium and magnesium, supplemented with 10 mM HEPES buffered saline and 100 U/mL of penicillin-streptomycin. The hippocampi were mechanically disaggregated using fire-polished pipettes and plated for 2–4 h in neuronal plating medium composed of minimum essential medium (MEM) enriched with 0.6% D-glucose and 10% horse serum. Neuronal plating medium was replaced by neurobasal medium supplemented with 1X B-27 and 2 mM L-glutamine. Neurons were grown for 7 days prior to the experiments. For the microglial cells, we used the BV-2 immortalized murine cell line. Microglial cells were cultured in Dulbecco’s modified Eagle medium (DMEM) with 4.5 g/L D-glucose, 2 mM L-glutamine, 100 U/mL of penicillin-streptomycin, and 10% heat-inactivated fetal bovine serum. Cells were maintained at 37 °C in a humidified incubator with 5% CO2. All culture media were purchased from Thermo Fisher Scientific (Waltham, MA, USA).
(§2) Neurons and microglia were both seeded at a density of 10,000 cells/well in 96-well plates previously treated with 0.1 mg/mL of poly-L-lysine (Sigma-Aldrich). […] Cell viability was determined at 24, 48, and 72 h. The percentage of viable cells was quantified using the CellTiter-Glo® Luminescent Cell Viability Assay (Promega Biotech Ibérica, Madrid, Spain) following the instructions by the manufacturer. The […] of the cell culture media alone was subtracted as the background from all readings. Cell viability in the drug-treated cells was normalized to their respective vehicle controls. Experiments were repeated three times, each condition in triplicate.
(§3) Statistical analysis was performed using Prism 8 software (GraphPad, Boston, MA, USA). For the cell viability assays, a linear regression analysis was made with logarithmic transformation of the drug concentrations in the X-axis. The coefficient of determination (R²) was calculated as a measurement of the adjustment of the data to the regression model. The Mann–Whitney test was used to compare two different conditions. The Kruskal–Wallis test was used to compare the different concentrations of each drug against the vehicle or LPS. Statistical significance was established at p < 0.05.

[3] = system: neurons; experiment: RNA-sequencing of drug-treated neurons; assay type: cell-based, rat
[4] = system: Nrf2; experiment: Nrf2 nuclear translocation by immunofluorescence in microglia; assay type: cell-based, murine; conditions: for Nrf2 activation (nuclear translocation), result in words: 4 h, any tested concentration
Protocol: as §1
For the immunofluorescence experiments, neurons and microglia were directly seeded on glass coverslips previously treated with 1 mg/mL of poly-L-lysine. […] After the drug treatments, the cells were fixed on ice with 4% paraformaldehyde for 25 min and then permeabilized and blocked using 0.1% Triton X-100 (10 min) and 5% BSA (30 min), respectively. Cells were then incubated overnight with the primary antibodies and 1% BSA at 4 °C. The primary antibodies anti-Nrf2 (ab1375550) and anti-NF-kB p65 (ab16502) (both from Abcam, Cambridge, United Kingdom) were used at 1:200. […] For each experimental condition, five random fields were captured and analyzed using ImageJ software (National Institutes of Health, Maryland, DC, USA). Activation of Nrf2 or NF-kB was defined as nuclear translocation, measured by the increase in the mean fluorescence intensity (MFI) in the nucleus. […]

[5] = system: BV-2 immortalized murine cell line (microglia); experiment: Cell viability assay (CellTiter-Glo) in microglia; assay type: cell-based
Protocol: Cell viability was measured at 24, 48, and 72 h of treatment with different drug concentration ranges. For each cellular type, we determined the half-maximal inhibitory concentration (IC50) of each drug. In neurons, as a non-proliferative primary culture, the IC50 was defined as the drug concentration able to diminish cell viability by 50% with respect to the vehicle-treated control. In microglia, as a proliferative cell line, the IC50 was defined as the drug concentration able of inhibiting by 50% cellular proliferation with respect to the vehicle-treated control.
as §1, §2, §3

[6] = system: Nrf2; experiment: Nrf2 nuclear translocation by immunofluorescence in neurons; assay type: cell-based, Wistar rats; conditions: for lowest concentration inducing nuclear translocation (activation) of Nrf2: significant vs vehicle
Protocol: as §1
For the immunofluorescence experiments, neurons and microglia were directly seeded on glass coverslips previously treated with 1 mg/mL of poly-L-lysine. […] After the drug treatments, the cells were fixed on ice with 4% paraformaldehyde for 25 min and then permeabilized and blocked using 0.1% Triton X-100 (10 min) and 5% BSA (30 min), respectively. Cells were then incubated overnight with the primary antibodies and 1% BSA at 4 °C. The primary antibodies anti-Nrf2 (ab1375550) and anti-NF-kB p65 (ab16502) (both from Abcam, Cambridge, United Kingdom) were used at 1:200. After washing with PBS, cells were incubated with the fluorophore-conjugated secondary antibody anti-Rabbit IgG Alexa Fluor 488 (Thermo Fisher Scientific) at 1:500 for 1 h at room temperature. Cells were counterstained with the TO-PRO fluorescent dye (Thermo Fisher Scientific) to visualize the cell nuclei. Images were captured using the confocal microscope Leica TCS SP5 (Leica Microsystems, Wetzlar, Germany). For each experimental condition, five random fields were captured and analyzed using ImageJ software (National Institutes of Health, Maryland, DC, USA). Activation of Nrf2 or NF-kB was defined as nuclear translocation, measured by the increase in the mean fluorescence intensity (MFI) in the nucleus. Each experiment was repeated three times.

[7] = Rattus norvegicus, Hippocampal neuron, 24 h, neurons, 24 h, read-out: IC50 (cell viability)
[8] = Rattus norvegicus, Hippocampal neuron, 48 h, neurons, 48 h, read-out: IC50 (cell viability)
[9] = Rattus norvegicus, Hippocampal neuron, 72 h, neurons, 72 h, read-out: IC50 (cell viability)
[10] = neurons, 24 h, read-out: IC50 (cell viability)
[11] = neurons, 72 h, read-out: IC50 (cell viability)
[12] = 4 h, 30 µM DMF, 30 µM MMF, 6 µM CBD
[13] = 24 h, 30 µM DMF, 30 µM MMF, 6 µM CBD
[14] = Mus musculus, Microglia, 24 h, microglia, 24 h, concentration inhibiting cellular proliferation by 50% vs vehicle, read-out: IC50 (cell viability)
[15] = Mus musculus, Microglia, 48 h, microglia, 48 h, concentration inhibiting cellular proliferation by 50% vs vehicle, read-out: IC50 (cell viability)
[16] = Mus musculus, Microglia, 72 h, microglia, 72 h, concentration inhibiting cellular proliferation by 50% vs vehicle, read-out: IC50 (cell viability)

SMILES	effect on neuronal apoptosis, in words ([1]; 10 µM)	effect on neuronal apoptosis, in words ([1]; 30 µM)	IC50 [2, 7]	IC50 [2, 8]	IC50 [2, 9]	IC50 [2, 10]	IC50 [2, 11]	number of differentially expressed genes (DEGs) vs vehicle [3, 12]	number of downregulated DEGs vs vehicle ([3]; 24 h, 30 µM DMF, 6 µM CBD)	number of upregulated DEGs vs vehicle ([3]; 24 h, 30 µM DMF, 6 µM CBD)	Nqo1 expression vs vehicle ([3]; 24 h, 30 µM DMF, 30 µM MMF)	number of differentially expressed genes (DEGs) vs vehicle [3, 13]	IC50 [5, 14]	IC50 [5, 15]	IC50 [5, 16]	lowest concentration inducing nuclear translocation (activation) of Nrf2 ([6]; 4 h treatment)	Nrf2 activation (nuclear translocation), result in words [4]	also measured
COC(=O)/C=C/C(=O)OC [DMF, Dimethyl fumarate]	significantly prevented neuronal apoptosis	not at 30 µM	103 µM	54.5 µM	36.5 µM	~100 µM	36 µM	407	144	120	2.3 log2FC	264	37.2 µM	40.8 µM	73.2 µM	30 µM		decrease in cell viability ([2]; neurons, 30 µM): around 20%; number of DEGs between 24 h and 4 h of treatment (across time) ([3]; 30 µM DMF): 1276; Hmox1 expression vs vehicle ([3]; 4 h, 30 µM DMF): 3.9 log2FC; number of downregulated DEGs vs vehicle ([3]; 4 h, 30 µM DMF): 169; number of upregulated DEGs vs vehicle ([3]; 4 h, 30 µM DMF): 238; Nfe2l2 expression vs vehicle ([3]; 24 h, 30 µM DMF): 0.94 log2Fc; lowest concentration inducing nuclear translocation (activation) of Nrf2 ([4]; 4 h treatment, significant vs vehicle): 10 µM; IC50 ([5]; microglia, 24 h, concentration inhibiting cellular proliferation by 50% vs vehicle, read-out: IC50 (cell viability)): 37 µM; IC50 ([5]; microglia, 72 h, concentration inhibiting cellular proliferation by 50% vs vehicle, read-out: IC50 (cell viability)): 73 µM
COC(=O)/C=C/C(=O)O [MMF, monomethyl fumarate]	also prevented neuronal apoptosis	also protected neurons from apoptosis	67.8 µM	42.5 µM	55.6 µM	~65 µM	55 µM	did not produce any significant transcriptomic changes			0.98 log2FC	three	49.5 µM	41.7 µM	56.6 µM		did not observe Nrf2 activation	Gstp1 expression vs vehicle ([3]; 24 h, 30 µM MMF): 0.66 log2FC; IC50 ([5]; Mus musculus, Microglia, 72 h, microglia, all of the studied timepoints (24, 48, 72 h), read-out: IC50 (cell viability)): ~50 µM; Nrf2 activation (nuclear translocation), result in words ([6]; 4 h, same concentrations as DMF (up to 30 µM)): did not observe the nuclear translocation of Nrf2
C=C(C)[C@@H]1CCC(C)=C[C@H]1c1c(O)cc(CCCCC)cc1O [CBD, cannabidiol]								four	21	12		33				5 µM	did not produce the activation of Nrf2	effect on neuronal apoptosis, in words ([1]; 7 µM): prevented neuronal apoptosis; IC50 ([2]; Rattus norvegicus, Hippocampal neuron, 24 h, read-out: IC50 (cell viability), neurons, 24 h): 15.1 µM; IC50 ([2]; Rattus norvegicus, Hippocampal neuron, 48 h, read-out: IC50 (cell viability), neurons, 48 h): 13.6 µM; IC50 ([2]; Rattus norvegicus, Hippocampal neuron, 72 h, read-out: IC50 (cell viability), neurons, 72 h): 13 µM; decrease in cell viability ([2]; neurons, 10 µM): around 20%; IC50 ([2]; read-out: IC50 (cell viability), neurons, 24 h): 15 µM; IC50 ([2]; read-out: IC50 (cell viability), neurons, 72 h): 13 µM; Hmox1 expression vs vehicle ([3]; 24 h, 6 µM CBD): 4.9 log2FC; number of DEGs with strong downregulation (fold change < −1) ([3]; 24 h, 6 µM CBD): eight; number of DEGs with strong upregulation (fold change > 1) ([3]; 24 h, 6 µM CBD): nine; IC50 ([5]; Mus musculus, Microglia, 24 h, read-out: IC50 (cell viability), microglia, 24 h, concentration inhibiting cellular proliferation by 50% vs vehicle): 12 µM; IC50 ([5]; Mus musculus, Microglia, 48 h, read-out: IC50 (cell viability), microglia, 48 h, concentration inhibiting cellular proliferation by 50% vs vehicle): 12.2 µM; IC50 ([5]; Mus musculus, Microglia, 72 h, read-out: IC50 (cell viability), microglia, 72 h, concentration inhibiting cellular proliferation by 50% vs vehicle): 11.8 µM; IC50 ([5]; Mus musculus, Microglia, 72 h, read-out: IC50 (cell viability), microglia, all of the studied timepoints (24, 48, 72 h)): ~12 µM; Nrf2 nuclear protein levels, fold increase vs vehicle ([6]; 4 h, 5 µM): 4 fold; Nrf2 nuclear protein levels, fold increase vs vehicle ([6]; 4 h, 6 µM): 10 fold; Nrf2 nuclear protein levels, fold increase vs vehicle ([6]; 4 h, 7 µM): 10 fold; Nrf2 nuclear protein levels, fold increase vs vehicle ([6]; 4 h, 8 µM): 4 fold; Nrf2 nuclear protein levels, fold increase vs vehicle ([6]; 4 h, 10 µM): 4 fold; magnitude (peak) of Nrf2 activation, fold change of mean nuclear fluorescence intensity vs vehicle ([6]; 4 h treatment): 10 fold
